# Source: PMC4661406, “Uncovering the Mechanism of Aggregation of Human Transthyretin” (The Journal of Biological Chemistry, 2015)
# Where a SMILES comes first, the peptide text is derived from it. [ ]: non-standard residue; d: D form. NMeE = CN[C@@H](CCC(=O)O)C(=O)O; NMeA = CN[C@@H](C)C(=O)O
# Experiments:
# monomeric variant MTTR = target: T1, monomeric variant MTTR (Homo sapiens, UniProt P02766, F107M/L130M); assay: Binding of inhibitors to MTTR (unbound fraction by HPLC-MS); settings: apparent affinity for all MTTR species in solution (binding to aggregated species not excluded), 0.5 mg/ml MTTR with increasing combined R4PAm and R4PTm, 37 °C, 18 h, 10 mM sodium acetate pH 7.4, 100 mM KCl, 10 mM EDTA, one-site specific binding (GraphPad Prism 6), read-out: apparent binding constant (KD)
# T1 construct: made in house; host or cells: Escherichia coli Rosetta(DE3) pLysS, pET24(+) vector
# Description: The soluble unbound fraction of inhibitors after incubation with the monomeric variant MTTR ([40]) was quantified by HPLC-MS. Samples were made as follows. Soluble TTR at a fixed concentration of 0.5 mg/ml was incubated at 37 °C for 18 h in 10 mM sodium acetate (pH 7.4), 100 mM KCl, 10 mM EDTA with increasing quantities of combined R4PAm and R4PTm. The aggregated fraction was removed by 0.22-μm filtration. The protein fraction containing soluble TTR and inhibitor-bound complexes was then removed by acid precipitation with 1% acetic acid and consecutive ultracentrifugation at 90,000 rpm for 30 min. Neither 0.22-μm filtration nor acid precipitation affected the concentration of the unbound soluble fraction of the peptide inhibitors (data not shown). The unbound soluble fraction of inhibitors was subjected to size exclusion HPLC followed by mass spectrometry. […]
# (§1) FIGURE 6. […] A, midpoint temperatures of the thermal unfolding transition (Tm) of wild-type TTR at different conditions were determined by differential scanning calorimetry. […] The unbound fraction of inhibitors was analyzed by HPLC-MS. […] TTR aggregation (TTR agg.) was measured by absorbance at 400 nm with the initial protein amount normalized to 100%. mAU, milli-absorbance units; N.A., not applicable. […]
# WT TTR = assay: Differential scanning calorimetry of WT TTR with T4 and/or inhibitors; assay type: binding, human; settings: versus WT TTR alone (no T4 before addition); 5:1 molar ratio to TTR monomer; 3.5 M guanidinium chloride, pH 4.3
# Description: Data were taken with a DSC-II differential scanning calorimeter (Calorimetry Sciences Corp., Lindon, UT). The midpoint temperatures of the thermal unfolding transition (Tm) of wild type and mutants were determined. Thermal denaturation of TTR was irreversible under our conditions ([1], [38]), and absolute thermodynamic parameters were not determined. […] The experiments were performed in 3.5 M guanidinium hydrochloride to depress melting below 100 °C; this guanidinium concentration also solubilized thyroxine. Protein samples were thawed on ice and filtered, and the concentration was measured by UV-visible absorption. Protein samples were diluted to 1 mg/ml in 3.5 M guanidinium chloride, 100 mM sodium acetate (pH 4.3), 100 mM potassium chloride, 1 mM EDTA. A volume of 700 μl of each protein sample was prepared in a 1.5-ml microcentrifuge tube and degassed for 5 min under vacuum while stirring. The reference cell contained only buffer components. […]
# as §1
# [1] = tested on: transthyretin amyloidosis; settings: background statement, refs 16-18 cited in the next sentence; cited from earlier work
# Text: Currently, there is no cure for transthyretin amyloidosis, and the treatment for familial cases of ATTR is liver transplantation. […] Several other therapeutics are currently in clinical trials, including other tetramer stabilizers such as diflunisal and RNAi therapies that cause a decrease in the production of TTR protein ([16][–][18]). Additional approaches are needed to prevent ATTR, and here we explore the use of peptide inhibitors that block aggregation of TTR.
# [2] = Fibril formation of TTR peptides in isolation (TEM); assay type: physicochemical; settings: PBS pH 7.4, 37 °C, no shaking; TEM after 7 days (methods: incubated 2 weeks); peptide concentration 0.5-17 mM
# Description: Following dissolution, samples were filtered through a 0.2-μm filter and incubated at 37 °C with no shaking for 2 weeks.
# TEM was performed to visualize the fibril formation of TTR proteins and peptides. 5 μl of the sample was spotted onto freshly glow-discharged, carbon-coated EM grids (Ted Pella, Redding, CA). After 3 min of incubation, grids were rinsed three times with 5 μl of distilled water and then stained with 2% uranyl acetate for 2 min. Grids were examined with a T12 Quick CryoEM and CryoET (FEI) transmission electron microscope at an accelerating voltage of 120 kV. Digital images were recorded using a Gatan 2,048 × 2,048 charge-coupled device camera.
# FIGURE 2. β-Strand F as an aggregation-driving segment in TTR suitable for aggregation inhibitor design. […] Histograms show percentage of TTR aggregation using WT TTR to normalize to 100%. The aggregation was measured by absorbance of the samples at 400 nm after 4 days of incubation at 37 °C and pH 4.3 with no shaking. […]
# FIGURE 3. β-Strand H as a second aggregation-driving segment suitable as a target for aggregation inhibitor design. A, residue solvent-accessible surface area (ASA; Å^2) of TTR was calculated by Areaimol using the structure of WT TTR in three different conformations: tetramer (blue), dimer (black), and monomer (green). […]
compound,measurement,setting,value
CC(C)[C@H](NC(=O)[C@@H](NC(=O)[C@H](CCC(=O)O)N(C)C(=O)[C@H](C)NC(=O)[C@H](Cc1c[nH]cn1)NC(=O)[C@H](CCC(=O)O)NC(=O)[C@H](Cc1c[nH]cn1)NC(=O)[C@H](Cc1ccccc1)NC(=O)[C@@H]1CCCN1C(=O)[C@H](CCCNC(=N)N)NC(=O)[C@H](CCCNC(=N)N)NC(=O)[C@H](CCCNC(=N)N)NC(=O)[C@@H](N)CCCNC(=N)N)C(C)C)C(=O)N[C@@H](Cc1ccccc1)C(=O)N[C@H](C(=O)N[C@@H](C)C(=O)O)[C@@H](C)O [R4PAm] (H-RRRRPFHEHA[NMeE]VVFTA-OH),Kd,monomeric variant MTTR,17.9 ± 6.1 µM
CC(C)[C@H](NC(=O)[C@@H](NC(=O)[C@H](C)N(C)C(=O)[C@@H](NC(=O)[C@@H](NC(=O)[C@H](CO)NC(=O)[C@H](Cc1ccc(O)cc1)NC(=O)[C@H](CO)NC(=O)[C@H](Cc1ccc(O)cc1)NC(=O)[C@@H]1CCCN1C(=O)[C@H](CCCNC(=N)N)NC(=O)[C@H](CCCNC(=N)N)NC(=O)[C@H](CCCNC(=N)N)NC(=O)[C@@H](N)CCCNC(=N)N)[C@@H](C)O)[C@@H](C)O)C(C)C)C(=O)N[C@H](C(=O)N[C@@H](CC(N)=O)C(=O)O)[C@@H](C)O [R4PTm] (H-RRRRPYSYSTT[NMeA]VVTN-OH),Kd,monomeric variant MTTR,19.3 ± 6.7 µM
"NC(Cc1cc(I)c(Oc2cc(I)c(O)c(I)c2)c(I)c1)C(=O)O (stereo not drawn) [T4, thyroxine]",increase in Tm of WT TTR on addition,WT TTR,10.8 °C
O=C(O)c1ccc2nc(-c3cc(Cl)cc(Cl)c3)oc2c1 [Tafamidis],disease progression,[1],delays progression of the disease
AEVVFT [6-residue TTR segment 91-96 from strand F],fibril formation in isolation,[2],form fibrils in solution by self-aggregation
TAVVTN [6-residue TTR segment 119-124 from strand H],fibril formation in isolation,[2],form fibrils in solution by self-aggregation
